Patent US7202280B2, “Methods for the treatment and prevention of pancreatitis and for induction of liver regeneration” (priority 2002, dated 2007)
Marks after values point to notes of the source that are not given here.

Assays:
[1] = test system: SSAT transgenic rats; experiment: Stability of the analogues in the liver of SSAT transgenic rats without or with MDL72527 (hepatic polyamine pools); assay type: in vivo, rat; conditions: for metabolic stability / conversion in the liver in vivo: without MDL72527
Experimental: FIGS. 8A-8D. Hepatic polyamine pools in SSAT transgenic rats treated with methylated polyamine analogues without or with MDL72527. The rats were injected twice with MDL72527 (50 mg/kg i.p.) at 16-h interval. The polyamine analogues (25 mg/kg i.p.) were injected 2 and 8 h later. The animals were sacrificed 24 h after the last MDL72527 injection. There were three to four animals in each group. Put, putrescine; […] Spd, spermidine; Me-Spd, α-methylspermidine; […] The production of transgenic Wistar rats (UKUR30) and mice (UKU181) harboring metallothionein-SSAT fusion gene (Suppola, […]., Porter, C. W., and Jänne, J. (1999) Biochem. […] (2000) Proc. Natl. Acad. Sci. U.S.A. 97, 8290-8295; Lukkarinen, […]., and Alhonen, L. (1997) Stroke 28, 639-645). Partial hepatectomy was carried out according to the original method of Higgins and Anderson (Higgins, G. H., and Anderson, R. M. (1931) Arch. Pathol. 12, 186-202). Treatments before partial hepatectomy and the determination of DNA synthesis were carried out as in ([…]., Suppola, […]., and […]. Biol. Chem. 277, 39867-39872). Transgenic 10 weeks old male rats were injected twice with MDL72527 (50 mg/kg i.p.) at 16-h interval to inactivate PAO according to (Bolkenius, F. N., Bey, P., and Seiler, N. (1985) Biochim. Biophys. […] An aliquot of the homogenates was used for the polyamine assays. The homogenates were centrifuged (at 13 000×g, for 30 min, at 4° C.) and the supernatants were used for the enzyme activity assays. The Institutional Animal Care and Use Committee of the University of Kuopio and by the Provincial Government approved animal experiments. […] Merck (Darmstadt, Germany).

[2] = test system: syngenic and transgenic rats; experiment: Hepatic SSAT activity and polyamine pools after partial hepatectomy; assay type: in vivo, rat; conditions: for Me-Spd (liver) / Put (liver) / Spd (liver) / Spm (liver): 24 h regenerating liver
Description: FIGS. 4a–4d. Hepatic polyamine pools in syngenic and transgenic rats after partial hepatectomy and methylspermidine. […] Three to five animals in each group. Me-spd, methylspermidine.
The production of transgenic Wistar rats (UKUR30) and mice (UKU181) harboring metallothionein-SSAT fusion gene (Suppola, S., Pietilä, M., Parkkinen, J. J., Korhonen, V. P., Alhonen, L., Halmekytö, M., Porter, C. W., and Jänne, J. (1999) Biochem. J. 338, 311–316) has been described earlier (Alhonen, L., Parkkinen, J. J., Keinänen, T., Sinervirta, R., Herzig, K. H., and Jänne, J. (2000) Proc. Natl. Acad. Sci. U.S.A. 97, 8290–8295; Lukkarinen, J., Gröhn, O., Sinervirta, R., Järvinen, A., Kauppinen, R. A., Jänne, J., and Alhonen, L. (1997) Stroke 28, 639–645). Partial hepatectomy was carried out according to the original method of Higgins and Anderson (Higgins, G. H., and Anderson, R. M. (1931) Arch. Pathol. 12, 186–202). Treatments before partial hepatectomy and the determination of DNA synthesis were carried out as in (Räsänen, T. L., Alhonen, L., Sinervirta, R., Keinänen, T., Herzig, K. H., Suppola, S., Khomutov, A. R., Vepsäläinen, J., and Jänne, J. (2002) J. Biol. Chem. 277, 39867–39872). […] The animals were sacrificed 24 h after the second MDL72527 injection and liver pieces were frozen in liquid nitrogen, homogenized in buffer (25 mM Tris-HCl pH 7.4, 0.1 mM EDTA, 1 mM DTT). An aliquot of the homogenates was used for the polyamine assays. The homogenates were centrifuged (at 13 000×g, for 30 min, at 4° C.) and the supernatants were used for the enzyme activity assays. The Institutional Animal Care and Use Committee of the University of Kuopio and by the Provincial Government approved animal experiments.
FIG. 4 depicts polyamine concentrations in syngenic and transgenic rats at 24 h after partial hepatectomy. […] This in all likelihood reflected the enhanced SSAT activity. […] In transgenic animals, the low spermidine pool was further decreased in response to the operation (FIG. 4c).
Liver regeneration could be restored by a prior administration of α-methylspermidine (Räsänen, T. L., Alhonen, L., Sinervirta, R., Keinänen, T., Herzig, K. H., Suppola, S., Khomutov, A. R., Vepsäläinen, J., and Jänne, J. (2002) J. Biol. Chem. 277, 39867–39872). FIG. 10. depicts thymidine incorporation in livers of transgenic rats before and 24 h after partial hepatectomy. […] Table 3 lists the liver pools of polyamines and their analogues before and after partial hepatectomy. […] The analogues were readily accumulated in the livers.

[3] = test system: SSAT; experiment: Hepatic, pancreatic and renal SSAT activity in syngenic and metallothionein-SSAT mice after analogue; assay type: in vivo, mouse
Experimental: α-methylspermidine, Bis-α-methylspermine and α-methylspermine were administered in saline. […] The data are expressed as means ±S.D. For statistical analysis, the two-tailed Student's t test was used.

[4] = test system: rats; experiment: Toxicity of spermine derivatives in rats (deaths); assay type: in vivo, rat; conditions: 50 mg/kg twice/24 h
Description: It is likely to be the case with the methylated analogues as well.

[5] = transgenic rats, 5 mg/kg 20 and 4 h before operation
[6] = transgenic rats, 25 mg/kg 20 and 4 h before operation
[7] = Sg (syngenic) mice, 12.5 mg/kg, 24 h before sacrifice
[8] = Sg (syngenic) mice, 25 mg/kg, 24 h before sacrifice
[9] = Sg (syngenic) mice, 37.5 mg/kg, 24 h before sacrifice
[10] = Sg (syngenic) mice, 50 mg/kg, 24 h before sacrifice
[11] = Tg (transgenic) mice, 12.5 mg/kg, 24 h before sacrifice
[12] = Tg (transgenic) mice, 25 mg/kg, 24 h before sacrifice
[13] = Tg (transgenic) mice, 37.5 mg/kg, 24 h before sacrifice
[14] = Tg (transgenic) mice, 50 mg/kg, 24 h before sacrifice

CC(N)CCNCCCCN (stereo not drawn) [α-methylspermidine, 1-methylspermidine]
accumulation in the liver (tissue concentration) ([1]; 25 mg/kg i.p. twice): highest tissue concentrations | metabolic stability / conversion in the liver in vivo ([1]; 25 mg/kg i.p. twice): metabolically stable | hepatic spermidine and spermine concentrations ([2]; 24 h after partial hepatectomy, 50 mg/kg 3 h before): little effect on hepatic spermidine and spermine concentrations | accumulation of the analogue in liver ([2]; normal and transgenic rats, 50 mg/kg 3 h before partial hepatectomy): effectively accumulated in normal and transgenic liver | hepatic putrescine pool ([2]; transgenic rats, 24 h after partial hepatectomy, 50 mg/kg 3 h before): strikingly increased in response to the analogue | Me-Spd (liver) [2, 5]: 462 ± 41 pmoles/mg tissue wet weight | Put (liver) [2, 5]: 4540 ± 690^a pmoles/mg tissue wet weight | Spd (liver) [2, 5]: 183 ± 47^a pmoles/mg tissue wet weight | Spm (liver) [2, 5]: 18 ± 5^a pmoles/mg tissue wet weight | Me-Spd (liver) [2, 6]: 864 ± 166 pmoles/mg tissue wet weight | Put (liver) [2, 6]: 3570 ± 596^a pmoles/mg tissue wet weight | Spd (liver) [2, 6]: 281 ± 107^a pmoles/mg tissue wet weight | Spm (liver) [2, 6]: 40 ± 24^a pmoles/mg tissue wet weight | hepatic SSAT activity ([2]; transgenic rats, single dose 3 h prior to partial hepatectomy, 24 h postoperatively): 7520±3000 pmol/mg/10 min | SSAT activity, Kidney ([3]; Sg mice, 50 mg/kg, 24 h): 4.98 pmoles/10 min/mg tissue wet weight | SSAT activity, Liver ([3]; Sg mice, 50 mg/kg, 24 h): 3.74 pmoles/10 min/mg tissue wet weight | SSAT activity, Pancreas ([3]; Sg mice, 50 mg/kg, 24 h): 6.58 pmoles/10 min/mg tissue wet weight | SSAT activity, Kidney ([3]; Sg mice, 100 mg/kg, 24 h): 4.61 pmoles/10 min/mg tissue wet weight | SSAT activity, Liver ([3]; Sg mice, 100 mg/kg, 24 h): 3.77 pmoles/10 min/mg tissue wet weight | SSAT activity, Pancreas ([3]; Sg mice, 100 mg/kg, 24 h): 7.50 pmoles/10 min/mg tissue wet weight | SSAT activity, Kidney ([3]; Sg mice, 150 mg/kg, 24 h): 5.05 pmoles/10 min/mg tissue wet weight | SSAT activity, Liver ([3]; Sg mice, 150 mg/kg, 24 h): 4.16 pmoles/10 min/mg tissue wet weight | SSAT activity, Pancreas ([3]; Sg mice, 150 mg/kg, 24 h): 6.91 pmoles/10 min/mg tissue wet weight | SSAT activity, Liver ([3]; Sg mice, 250 mg/kg, 24 h): 3.75 pmoles/10 min/mg tissue wet weight | SSAT activity, Pancreas ([3]; Sg mice, 250 mg/kg, 24 h): 12.10 pmoles/10 min/mg tissue wet weight | SSAT activity, Liver ([3]; Sg mice, 375 mg/kg, 24 h): 9.52 pmoles/10 min/mg tissue wet weight | SSAT activity, Pancreas ([3]; Sg mice, 375 mg/kg, 24 h): 18.19 pmoles/10 min/mg tissue wet weight | SSAT activity, Kidney ([3]; Sg mice, 500 mg/kg, 24 h): 14.67 pmoles/10 min/mg tissue wet weight | SSAT activity, Liver ([3]; Sg mice, 500 mg/kg, 24 h): 16.06 pmoles/10 min/mg tissue wet weight | SSAT activity, Pancreas ([3]; Sg mice, 500 mg/kg, 24 h): 26.85 pmoles/10 min/mg tissue wet weight | SSAT activity, Kidney ([3]; Tg mice, 50 mg/kg, 24 h): 3.19 pmoles/10 min/mg tissue wet weight | SSAT activity, Liver ([3]; Tg mice, 50 mg/kg, 24 h): 74.88 pmoles/10 min/mg tissue wet weight | SSAT activity, Pancreas ([3]; Tg mice, 50 mg/kg, 24 h): 179.02 pmoles/10 min/mg tissue wet weight | SSAT activity, Kidney ([3]; Tg mice, 100 mg/kg, 24 h): 3.13 pmoles/10 min/mg tissue wet weight | SSAT activity, Liver ([3]; Tg mice, 100 mg/kg, 24 h): 74.88 pmoles/10 min/mg tissue wet weight | SSAT activity, Pancreas ([3]; Tg mice, 100 mg/kg, 24 h): 226.27 pmoles/10 min/mg tissue wet weight | SSAT activity, Kidney ([3]; Tg mice, 150 mg/kg, 24 h): 3.36 pmoles/10 min/mg tissue wet weight | SSAT activity, Liver ([3]; Tg mice, 150 mg/kg, 24 h): 81.59 pmoles/10 min/mg tissue wet weight | SSAT activity, Pancreas ([3]; Tg mice, 150 mg/kg, 24 h): 183.078 pmoles/10 min/mg tissue wet weight | SSAT activity, Liver ([3]; Tg mice, 250 mg/kg, 24 h): 95.04 pmoles/10 min/mg tissue wet weight | SSAT activity, Pancreas ([3]; Tg mice, 250 mg/kg, 24 h): 188.45 pmoles/10 min/mg tissue wet weight | SSAT activity, Liver ([3]; Tg mice, 375 mg/kg, 24 h): 135.53 pmoles/10 min/mg tissue wet weight | SSAT activity, Pancreas ([3]; Tg mice, 375 mg/kg, 24 h): 133.57 pmoles/10 min/mg tissue wet weight

CC(N)CCNCCCCNCCCN (stereo not drawn) [α-methylspermine, 1-methylspermine]
metabolic stability / conversion in the liver in vivo ([1]; 25 mg/kg i.p. twice): effectively converted to α-methylspermidine | conversion to α-methylspermidine in the liver ([1]; with MDL72527 50 mg/kg i.p. twice): markedly inhibited | deaths [4]: a number of rats died | SSAT activity, Kidney [3, 7]: 3.65 ± 2.39 ^+ pmoles/10 min/ tissue wet weight | SSAT activity, Liver [3, 7]: 0.47 pmoles/10 min/ tissue wet weight | SSAT activity, Pancreas [3, 7]: 2.03 pmoles/10 min/ tissue wet weight | SSAT activity, Kidney [3, 8]: 2.76 ± 2.52 pmoles/10 min/ tissue wet weight | SSAT activity, Liver [3, 8]: 0.26 pmoles/10 min/ tissue wet weight | SSAT activity, Pancreas [3, 8]: 1.72 pmoles/10 min/ tissue wet weight | SSAT activity, Kidney [3, 9]: 4.29 ± 2.38 pmoles/10 min/ tissue wet weight | SSAT activity, Liver [3, 9]: 0.75 pmoles/10 min/ tissue wet weight | SSAT activity, Pancreas [3, 9]: 1.46 pmoles/10 min/ tissue wet weight | SSAT activity, Kidney [3, 10]: 3.20 ± 2.40 pmoles/10 min/ tissue wet weight | SSAT activity, Liver [3, 10]: 0.52 pmoles/10 min/ tissue wet weight | SSAT activity, Pancreas [3, 10]: 2.23 pmoles/10 min/ tissue wet weight | SSAT activity, Kidney [3, 11]: 5.86 ± 1.91 pmoles/10 min/ tissue wet weight | SSAT activity, Liver [3, 11]: 21.19 pmoles/10 min/ tissue wet weight | SSAT activity, Pancreas [3, 11]: 609.10 pmoles/10 min/ tissue wet weight | SSAT activity, Kidney [3, 12]: 3.06 ± 2.23 pmoles/10 min/ tissue wet weight | SSAT activity, Liver [3, 12]: 30.81 pmoles/10 min/ tissue wet weight | SSAT activity, Pancreas [3, 12]: 561.36 pmoles/10 min/ tissue wet weight | SSAT activity, Kidney [3, 13]: 3.47 ± 2.52 pmoles/10 min/ tissue wet weight | SSAT activity, Liver [3, 13]: 24.88 pmoles/10 min/ tissue wet weight | SSAT activity, Pancreas [3, 13]: 543.84 pmoles/10 min/ tissue wet weight | SSAT activity, Kidney [3, 14]: 2.95 ± 1.82 pmoles/10 min/ tissue wet weight | SSAT activity, Liver [3, 14]: 39.44 pmoles/10 min/ tissue wet weight | SSAT activity, Pancreas [3, 14]: 707.60 pmoles/10 min/ tissue wet weight
